{"source": "DBAASP", "test_in_all_cases": "≥ marks a high value that may be exact or a test limit, other limits are often not marked, values filed in µg/mL are converted to µM", "key": {"[1]": {"test_system": "Escherichia coli DC2"}, "[2]": {"test_system": "Escherichia coli K-12"}, "[3]": {"test_system": "Staphylococcus aureus UAMS-1"}, "[4]": {"test_system": "Staphylococcus aureus"}, "[5]": {"test_system": "Micrococcus luteus MTCC 106"}, "[6]": {"test_system": "Vibrio cholerae MTCC 3904"}, "[7]": {"test_system": "Cronobacter sakazakii DPC 6440"}, "[8]": {"test_system": "Listeria monocytogenes LO28"}, "[9]": {"test_system": "Staphylococcus aureus ATCC 25023"}, "[10]": {"test_system": "Acinetobacter calcoaceticus"}, "[11]": {"test_system": "Candida albicans"}, "[12]": {"test_system": "Escherichia coli ATCC 25922"}, "[13]": {"test_system": "Pseudomonas aeruginosa"}, "[14]": {"test_system": "Streptococcus agalactiae"}, "[15]": {"test_system": "Xanthomonas axonopodis pv. glycines ISBF 327"}, "[16]": {"test_system": "Escherichia coli"}, "[17]": {"test_system": "Listeria monocytogenes"}, "[18]": {"test_system": "Salmonella enterica subsp. enterica serovar Paratyphi A"}, "[19]": {"test_system": "Staphylococcus aureus 007"}, "[20]": {"test_system": "Staphylococcus aureus A170"}, "[21]": {"test_system": "Staphylococcus aureus A172"}, "[22]": {"test_system": "Staphylococcus epidermidis"}, "[23]": {"test_system": "Bacillus cereus AS1.126"}, "[24]": {"test_system": "Candida albicans CMCC 98001"}, "[25]": {"test_system": "Enterobacter cloacae CGMCC 1.58"}, "[26]": {"test_system": "Enterococcus faecalis CGMCC 1.595"}, "[27]": {"test_system": "Enterococcus faecium CGMCC 1.2334"}, "[28]": {"test_system": "Escherichia coli AS1.349"}, "[29]": {"test_system": "Fusobacterium nucleatum CGMCC 1.2526"}, "[30]": {"test_system": "Klebsiella aerogenes CGMCC 1.876"}, "[31]": {"test_system": "Klebsiella pneumoniae subsp. pneumoniae CGMCC 1.176"}, "[32]": {"test_system": "Lactobacillus acidophilus CGMCC 1.1854"}, "[33]": {"test_system": "Lactococcus lactis AS1.1690"}, "[34]": {"test_system": "Pseudomonas aeruginosa CGMCC 1.860"}, "[35]": {"test_system": "Staphylococcus aureus AS1.72"}, "[36]": {"test_system": "Streptococcus mutans CGMCC 1.2500"}, "[37]": {"test_system": "Streptococcus salivarius CGMCC 1.2498"}, "[38]": {"test_system": "Streptococcus sanguinis CGMCC 1.2497"}, "[39]": {"test_system": "Acinetobacter baumannii CICC 22934"}, "[40]": {"test_system": "Proteus mirabilis CICC 22931"}}, "data": [{"smiles": "CC[C@H](C)[C@H](NC(=O)[C@H](CCCCN)NC(=O)[C@H](CCC(=O)O)NC(=O)[C@H](CCCCN)NC(=O)[C@H](CO)NC(=O)[C@H](CCCCN)NC(=O)[C@H](CCCN=C(N)N)NC(=O)[C@H](Cc1ccccc1)NC(=O)[C@H](Cc1ccccc1)NC(=O)[C@H](CC(=O)O)NC(=O)CNC(=O)[C@H](CC(C)C)NC(=O)[C@@H](N)CC(C)C)C(=O)NCC(=O)N[C@@H](CCCCN)C(=O)N[C@@H](CCC(=O)O)C(=O)N[C@@H](Cc1ccccc1)C(=O)N[C@@H](CCCCN)C(=O)N[C@@H](CCCN=C(N)N)C(=O)N[C@H](C(=O)N[C@H](C(=O)N[C@@H](CCC(N)=O)C(=O)N[C@@H](CCCN=C(N)N)C(=O)O)C(C)C)[C@@H](C)CC", "note": "[LLGDFFRKSKEKIGKEFKRIVQR]", "values": [{"measurement": "MIC", "setting": "[1]", "value": 9, "unit": "µM"}, {"measurement": "MIC", "setting": "[2]", "value": "≥ 160", "unit": "µM"}, {"measurement": "MIC", "setting": "[3]", "value": "≥ 160", "unit": "µM"}, {"measurement": "MIC", "setting": "[4]", "value": "> 24", "unit": "µM"}]}, {"smiles": "CC(C)C[C@H](NC(=O)[C@H](Cc1cnc[nH]1)NC(=O)[C@@H](NC(=O)[C@H](CC(C)C)NC(=O)[C@@H]1CSSC[C@H](NC(=O)[C@H](CO)NC(=O)[C@H](Cc2ccccc2)NC(=O)[C@@H]2CCCN2C(=O)[C@@H](NC(=O)[C@@H]2CCCN2C(=O)[C@H](C)N)C(C)C)C(=O)N[C@@H]([C@@H](C)O)C(=O)N[C@@H](CCCN=C(N)N)C(=O)NCC(=O)N1)[C@@H](C)O)C(=O)N[C@H](C(=O)O)C(C)C", "note": "[APVPFSCTRGCLTHLV]", "values": [{"measurement": "MIC", "setting": "[5]", "value": 6.3, "unit": "µM"}, {"measurement": "MIC", "setting": "[6]", "value": 25.4, "unit": "µM"}]}, {"smiles": "CC[C@H](C)[C@H](NC(=O)[C@@H](N)Cc1c[nH]c2ccccc12)C(=O)N[C@@H](CCC(N)=O)C(=O)N1CCC[C@H]1C(=O)N[C@@H](C)C(=O)N[C@H](C(=O)N[C@@H](CCCCN)C(=O)N[C@H](C(=O)N[C@H](C(=O)N1CCC[C@H]1C(=O)N[C@@H](Cc1ccc(O)cc1)C(=O)N[C@H](C(=O)N[C@@H](CCCN=C(N)N)C(=O)N[C@@H](Cc1ccc(O)cc1)C(=O)N[C@@H](CC(C)C)C(=O)O)C(C)C)[C@@H](C)CC)C(C)C)[C@@H](C)O", "note": "[WIQPATKVIPYVRYL]", "values": [{"measurement": "MIC", "setting": "[7]", "value": "≥ 156", "unit": "µM"}, {"measurement": "MIC", "setting": "[8]", "value": "≥ 39.1", "unit": "µM"}]}, {"smiles": "CC(C)C[C@H](NC(=O)[C@H](CCCN=C(N)N)NC(=O)[C@H](CC(C)C)NC(=O)[C@H](CC(C)C)NC(=O)[C@H](CC(C)C)NC(=O)[C@H](CCCCN)NC(=O)[C@H](CC(C)C)NC(=O)[C@@H](N)CCCN=C(N)N)C(N)=O", "note": "[RLKLLLRL]", "values": [{"measurement": "MIC", "setting": "[9]", "value": "≥ 125", "unit": "µM"}]}, {"smiles": "CC[C@H](C)[C@H](NC(=O)[C@H](C)NC(=O)[C@H](Cc1cnc[nH]1)NC(=O)[C@@H]1CCCN1C(=O)[C@@H](NC(=O)[C@H](CC(C)C)NC(=O)[C@H](CO)NC(=O)[C@H](CC(C)C)NC(=O)[C@@H](N)Cc1ccccc1)[C@@H](C)CC)C(=O)N[C@@H](CC(N)=O)C(=O)N[C@@H](C)C(=O)N[C@H](C(=O)N[C@@H](CO)C(=O)N[C@H](C(=O)N[C@@H](CC(C)C)C(=O)N[C@H](C(=O)N[C@@H](Cc1cnc[nH]1)C(=O)N[C@@H](Cc1cnc[nH]1)C(=O)N[C@@H](Cc1ccccc1)C(N)=O)C(C)C)[C@@H](C)O)C(C)C", "note": "[FLSLIPHAINAVSTLVHHF]", "values": [{"measurement": "MIC", "setting": "[10]", "value": 3.7, "unit": "µM"}, {"measurement": "MIC", "setting": "[11]", "value": 15.1, "unit": "µM"}, {"measurement": "MIC", "setting": "[12]", "value": 15, "unit": "µM"}, {"measurement": "MIC", "setting": "[13]", "value": 60.4, "unit": "µM"}, {"measurement": "MIC", "setting": "[4]", "value": 7.6, "unit": "µM"}, {"measurement": "MIC", "setting": "[14]", "value": 1.9, "unit": "µM"}, {"measurement": "MIC", "setting": "[15]", "value": "≥ 121", "unit": "µM"}]}, {"smiles": "CC[C@H](C)[C@H](NC(=O)[C@@H]1CCCN1C(=O)[C@H](CC(C)C)NC(=O)[C@H](CC(C)C)NC(=O)[C@H](Cc1ccc(O)cc1)NC(=O)[C@H](CCCCN)NC(=O)[C@@H](N)CCCCN)C(=O)N[C@H](C(=O)NCC(=O)N[C@@H](CC(N)=O)C(=O)N[C@@H](CC(C)C)C(=O)N[C@@H](CC(C)C)C(=O)N[C@@H](CCCCN)C(=O)N[C@@H](CO)C(=O)N[C@@H](CC(C)C)C(=O)N[C@@H](CC(C)C)C(N)=O)C(C)C", "note": "[KKYLLPIVGNLLKSLL]", "values": [{"measurement": "MIC", "setting": "[16]", "value": 11, "unit": "µM"}, {"measurement": "MIC", "setting": "[17]", "value": 5.52, "unit": "µM"}, {"measurement": "MIC", "setting": "[18]", "value": 11, "unit": "µM"}, {"measurement": "MIC", "setting": "[19]", "value": 5.52, "unit": "µM"}, {"measurement": "MIC", "setting": "[20]", "value": 11, "unit": "µM"}, {"measurement": "MIC", "setting": "[21]", "value": 13.8, "unit": "µM"}, {"measurement": "MIC", "setting": "[22]", "value": 3.86, "unit": "µM"}]}, {"smiles": "CC[C@H](C)[C@H](N)C(=O)N[C@@H](CCCCN)C(=O)N[C@@H](CCCCN)C(=O)N[C@H](C(=O)N[C@H](C(=O)N[C@@H](CO)C(=O)N[C@@H](CCCCN)C(=O)N[C@H](C(=O)N[C@@H](CCCCN)C(=O)N[C@@H](CCCCN)C(=O)N[C@@H](CC(C)C)C(=O)N[C@@H](CC(C)C)C(N)=O)[C@@H](C)CC)C(C)C)[C@@H](C)CC", "note": "[IKKIVSKIKKLL]", "values": [{"measurement": "MIC", "setting": "[23]", "value": 3.12, "unit": "µM"}, {"measurement": "MIC", "setting": "[24]", "value": 12.5, "unit": "µM"}, {"measurement": "MIC", "setting": "[25]", "value": 3.12, "unit": "µM"}, {"measurement": "MIC", "setting": "[26]", "value": 6.25, "unit": "µM"}, {"measurement": "MIC", "setting": "[27]", "value": 6.25, "unit": "µM"}, {"measurement": "MIC", "setting": "[28]", "value": 3.12, "unit": "µM"}, {"measurement": "MIC", "setting": "[29]", "value": 18.8, "unit": "µM"}, {"measurement": "MIC", "setting": "[30]", "value": 3.12, "unit": "µM"}, {"measurement": "MIC", "setting": "[31]", "value": 6.25, "unit": "µM"}, {"measurement": "MIC", "setting": "[32]", "value": 25, "unit": "µM"}, {"measurement": "MIC", "setting": "[33]", "value": 3.12, "unit": "µM"}, {"measurement": "MIC", "setting": "[34]", "value": 3.12, "unit": "µM"}, {"measurement": "MIC", "setting": "[35]", "value": 3.12, "unit": "µM"}, {"measurement": "MIC", "setting": "[36]", "value": 12.5, "unit": "µM"}, {"measurement": "MIC", "setting": "[37]", "value": 6.25, "unit": "µM"}, {"measurement": "MIC", "setting": "[38]", "value": 3.13, "unit": "µM"}]}, {"smiles": "CC(C)C[C@H](NC(=O)CNC(=O)[C@H](Cc1ccccc1)NC(=O)[C@H](CCCN=C(N)N)NC(=O)[C@H](CCCN=C(N)N)NC(=O)[C@H](CC(C)C)NC(=O)[C@H](Cc1cnc[nH]1)NC(=O)[C@H](CCCN=C(N)N)NC(=O)CNC(=O)[C@@H](NC(=O)[C@H](C)NC(=O)[C@@H](N)CO)C(C)C)C(=O)N[C@@H](CCCN=C(N)N)C(=O)N[C@@H](CCCCN)C(=O)N[C@@H](Cc1cnc[nH]1)C(=O)N[C@@H](CCCN=C(N)N)C(=O)N[C@@H](CCCCN)C(=O)N[C@@H](Cc1cnc[nH]1)C(=O)O", "note": "[SAVGRHLRRFGLRKHRKH]", "values": [{"measurement": "MIC", "setting": "[39]", "value": "≥ 100", "unit": "µM"}, {"measurement": "MIC", "setting": "[23]", "value": 6.25, "unit": "µM"}, {"measurement": "MIC", "setting": "[25]", "value": "≥ 100", "unit": "µM"}, {"measurement": "MIC", "setting": "[26]", "value": 12.5, "unit": "µM"}, {"measurement": "MIC", "setting": "[27]", "value": 12.5, "unit": "µM"}, {"measurement": "MIC", "setting": "[28]", "value": "≥ 100", "unit": "µM"}, {"measurement": "MIC", "setting": "[30]", "value": "≥ 100", "unit": "µM"}, {"measurement": "MIC", "setting": "[31]", "value": "≥ 100", "unit": "µM"}, {"measurement": "MIC", "setting": "[33]", "value": 18.8, "unit": "µM"}, {"measurement": "MIC", "setting": "[40]", "value": "≥ 100", "unit": "µM"}, {"measurement": "MIC", "setting": "[34]", "value": "≥ 100", "unit": "µM"}, {"measurement": "MIC", "setting": "[35]", "value": 9.38, "unit": "µM"}]}]}
